Consider six compounds from paper PMC9616902, “Chemical space docking enables large-scale structure-based virtual screening to discover ROCK1 kinase inhibitors” (Nature Communications, 2022).

Read-outs that look alike come from different tables or passages of the source.

The target in the experiment is T1, Human ROCK1 protein (amino acids 1–477) (Homo sapiens, UniProt Q13464).
T1 construct: purchased Carna Biosciences 01-109
As to the kind of experiment: ROCK1 HTRF KinEASE-STK S2 biochemical activity assay. The conditions noted are these: for S0 / Sinf / nHill: curve fit parameter; for Ki: average +/- standard deviation of three measurements, 3 μM ATP. The method, then: Human ROCK1 protein (amino acids 1–477 from accession number NP_05397.1) was purchased from Carna Biosciences (Cat# 01-109). This sequence contains the catalytic domain of the protein, and the biochemical activity was measured by the HTRF KinEASE-STK S2 Kit (Cisbio, Cat# 62ST2PEB) according to the manufacturer’s protocol. To determine the IC50, compounds were first dispensed by the Echo Liquid Handler (Labcyte) into white 384-well plates (PerkinElmer, Cat# 6008289). A total of 3 μL of 2x ROCK1 enzyme solution was added to the compounds, followed by a 10 min incubation at room temperature. Then, 2x ATP and STK S2 peptide solution were added to initiate the one-hour enzyme reaction at room temperature. The final condition of the reaction was 1.5 nM Rock1, 3 μM ATP, 0.5 μM STK S2 peptide in 50 mM HEPES pH7.2, 10 mM MgCl2, 0.1% BGG, 0.005% Brij-35, 1 mM DTT. The reaction was quenched by adding 6 μL of the detection mixture that contained Streptavidin XL665 and STK Antibody-Cryptate (Cisbio) and incubated for 1 hour at room temperature. The HTRF (665 nm/620 nm) signal was read on the PHERAstar reader (BMG Labtech). All measurements were done in triplicate.

Where [1] appears, read: 2021-01-17 ROCK1 HTRF (n=1) 665/620, no unit printed (values equal the uM IC50 of the 7th table x 1e-6), read-out: qAC50.
[2] abbreviates: 2021-01-17 ROCK1 HTRF (n=1) 665/620 Activity [%].
The mark [3] stands for this setting: 2021-01-18 ROCK1 (n=3) 665/620, no unit printed (values equal the uM IC50 of the 7th table x 1e-6), read-out: qAC50.
The mark [4] stands for this setting: 2021-01-18 ROCK1 (n=3) 665/620 Activity [%].
The mark [5] stands for this setting: 2021-01-18 ROCK1 HTRF (n=2) 665/620, no unit printed (values equal the uM IC50 of the 7th table x 1e-6), read-out: qAC50.
Setting [6] is: 2021-01-18 ROCK1 HTRF (n=2) 665/620 Activity [%].
[7] abbreviates: Supplementary Figure 4 source data, unit inferred, read-out: hit IC50.

T1 sequence (Q13464 1-477): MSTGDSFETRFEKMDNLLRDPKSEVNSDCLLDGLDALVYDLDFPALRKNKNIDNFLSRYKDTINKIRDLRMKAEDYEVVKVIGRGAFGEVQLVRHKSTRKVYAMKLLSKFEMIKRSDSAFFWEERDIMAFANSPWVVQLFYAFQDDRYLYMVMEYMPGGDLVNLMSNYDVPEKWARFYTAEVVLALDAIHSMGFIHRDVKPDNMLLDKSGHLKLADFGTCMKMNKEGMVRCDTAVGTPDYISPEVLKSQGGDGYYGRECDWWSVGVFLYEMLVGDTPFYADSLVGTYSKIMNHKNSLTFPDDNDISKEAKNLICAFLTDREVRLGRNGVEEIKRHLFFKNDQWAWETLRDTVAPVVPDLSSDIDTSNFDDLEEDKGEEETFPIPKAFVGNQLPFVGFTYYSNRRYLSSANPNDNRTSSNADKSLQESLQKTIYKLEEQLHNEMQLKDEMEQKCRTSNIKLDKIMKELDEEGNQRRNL

Compound `CC(NC(=O)c1ccc(-c2cn[nH]c2)cc1)C1CC1c1ccccc1` (mixture of isomers) [Compound 6] yielded a Ki of 87 ± 28 nM. For the same compound, under setting [1], the IC50 is 0.248 µM. In addition, under setting [2], the S0 is reported as 0.4458% and the Sinf is given as -96.8224%. Besides, under “2021-01-17 ROCK1 HTRF (n=1)”, the nHill was 1.0903. The IC50 under setting [3] was 0.14 µM. Also, under setting [4], the S0 is given as -2.655% and the Sinf was -93.6754%. In addition, the nHill (2021-01-18 ROCK1 (n=3)) is given as 1.532. Also, under setting [5], the IC50 was determined as 0.157 µM. Under setting [6], the S0 is 3.31% and the Sinf is reported as -94.0095%. The nHill (2021-01-18 ROCK1 HTRF (n=2)) came out at 1.2951. In addition, the IC50 under setting [7] was determined as 0.182 µM.
On to `CC(Cc1ccc(F)cc1F)NC(=O)c1ccc(-c2cn[nH]c2)cc1` (racemic) [Compound 3], for which affinity was put at a Ki of 76 ± 26 nM. Besides, the IC50 under setting [1] came out at 0.22 µM. Besides, under setting [2], the S0 is 1.865% and the Sinf is on record as -99.1673%. For the same compound, the nHill (2021-01-17 ROCK1 HTRF (n=1)) is given as 1.058. The IC50 under setting [3] came to 0.121 µM. In addition, under setting [4], the S0 was -2.06% and the Sinf is recorded as -95.7048%. Besides, where the note is “2021-01-18 ROCK1 (n=3)”, the nHill stood at 1.245. Also, under setting [5], the IC50 worked out at 0.136 µM. Moreover, under setting [6], the S0 is -2.159% and the Sinf is given as -97.6218%. For the setting “2021-01-18 ROCK1 HTRF (n=2)”, the nHill was determined as 1.01. Also, under setting [7], the IC50 is 0.159 µM.
In the case of `COCc1cccc(CC(=O)Nc2ccc(-c3cn[nH]c3)cc2)c1` [Compound 1], the affinity, expressed as Ki, was 38 ± 1 nM. Moreover, the IC50 under setting [1] stood at 0.0793 µM. Further, under setting [2], the S0 was -0.5714% and the Sinf is -100.2%. Where the note is “2021-01-17 ROCK1 HTRF (n=1)”, this compound gave a nHill of 1.046. Moreover, the IC50 under setting [3] is 0.0806 µM. Under setting [4], the S0 was -1.802% and the Sinf is on record as -99.1388%. Under “2021-01-18 ROCK1 (n=3)”, this compound showed a nHill of 1.109. Further, the IC50 under setting [5] was found to be 0.0814 µM. Moreover, under setting [6], the S0 is listed as -5.692% and the Sinf was -99.1049%. Also, the nHill (2021-01-18 ROCK1 HTRF (n=2)) came out at 1.139. In addition, the IC50 under setting [7] was determined as 0.08 µM.
The compound `CC(CNC(=O)c1ccc(-c2cn[nH]c2)cc1)N1CCc2ccccc21` (stereo not drawn) [Compound 2] returned a Ki of 49 ± 2 nM. Further, under setting [1], the IC50 turned out to be 0.108 µM. In addition, under setting [2], the S0 is recorded as -2.075% and the Sinf was -98.9577%. The compound further returned a nHill (2021-01-17 ROCK1 HTRF (n=1)) of 1.042. In addition, under setting [3], the IC50 stood at 0.101 µM. Besides, under setting [4], the S0 is reported as 1.158% and the Sinf is recorded as -99.9466%. Where the note is “2021-01-18 ROCK1 (n=3)”, the nHill is 0.9439. Besides, the IC50 under setting [5] amounted to 0.1 µM. Under setting [6], the S0 was -0.7898% and the Sinf was -98.8967%. For the same compound, the nHill (2021-01-18 ROCK1 HTRF (n=2)) is 0.9788. Further, under setting [7], the IC50 worked out at 0.103 µM.
Consider `O=C(NCC1(Cc2ccccc2)CC1)c1ccc(-c2cn[nH]c2)cc1` [Compound 4], for which the affinity corresponds to a Ki of 79 ± 13 nM. Besides, the IC50 under setting [1] was 0.197 µM. Also, under setting [2], the S0 is recorded as -5.337% and the Sinf is reported as -98.9033%. Moreover, the nHill (2021-01-17 ROCK1 HTRF (n=1)) is on record as 1.05. For the same compound, the IC50 under setting [3] worked out at 0.147 µM. Besides, under setting [4], the S0 is on record as -5.138% and the Sinf was -96.0861%. Where the note is “2021-01-18 ROCK1 (n=3)”, this compound gave a nHill of 1.483. Under setting [5], the IC50 was 0.15 µM. Further, under setting [6], the S0 is listed as -6.676% and the Sinf is recorded as -95.9487%. Under “2021-01-18 ROCK1 HTRF (n=2)”, this compound showed a nHill of 1.644. Further, the IC50 under setting [7] turned out to be 0.165 µM.
Turning to `CSc1cccc(F)c1CNC(=O)c1ccc(-c2cn[nH]c2)cc1` [Compound 5], the affinity, expressed as Ki, was 82 ± 1 nM. Further, the IC50 under setting [1] is 0.173 µM. In addition, under setting [2], the S0 was 3.131% and the Sinf is recorded as -99.2397%. The compound also registered a nHill (2021-01-17 ROCK1 HTRF (n=1)) of 1.067. Also, the IC50 under setting [3] stood at 0.171 µM. Besides, under setting [4], the S0 was -0.4047% and the Sinf is -100.142%. The compound also gave a nHill (2021-01-18 ROCK1 (n=3)) of 0.9507. Moreover, the IC50 under setting [5] stood at 0.17 µM. Also, under setting [6], the S0 amounted to 3.5105% and the Sinf is given as -98.3773%. Where the note is “2021-01-18 ROCK1 HTRF (n=2)”, the nHill worked out at 1.136. Besides, under setting [7], the IC50 turned out to be 0.171 µM.

A word on the Ki: it is the equilibrium dissociation constant of an inhibitor or competing ligand from its target. Read a low Ki as tighter binding.
